According to ChEMBL document CHEMBL3085718, “Discovery and optimization of orally active cyclohexane-based prolylcarboxypeptidase (PrCP) inhibitors” (Bioorg Med Chem Lett, 2013):

Assays:
in vivo [1] = conditions: mouse, po
in vivo [2] = conditions: mouse
in vivo [3] = conditions: C57, mouse, plasma, po, 30 mg/kg
[4] = Plasma concentration in C57 mouse at 10 mg/kg, po after 20 hrs by LC/MS analysis; type: ADME, organism-based; parameters: dose 10 mg/kg, route oral

Compound `O=C(NC(c1ccncc1)c1ccc(F)cc1)[C@@H]1CC[C@@H](N2CCOCC2)C[C@H]1c1ccc(Br)cc1` (stereo not given in full) has a bioavailability (in vivo [1]) of 6.9% and a half-life (in vivo [2]) of 2 h.
Compound `O=C(NC(c1ccc(Cl)cc1)c1cnccn1)[C@@H]1CC[C@@H](N2CCOCC2)C[C@H]1c1ccc(Br)cc1` (stereo not given in full) has a bioavailability (in vivo [1]) of 5.2% and a half-life (in vivo [2]) of 1.2 h.
In the case of `O=C(NC(c1ccc(Cl)cc1)c1ccc(F)cn1)[C@@H]1CC[C@@H](N2CCOCC2)C[C@H]1c1ccc(Br)cc1` (stereo not given in full), the bioavailability (in vivo [1]) is reported as 50%, the concentration at 20 h (in vivo [3]) is reported as 1840 nM and the half-life (in vivo [2]) is reported as 4.9 h.
With `O=C(NC(c1ccccc1)c1ccccc1)[C@@H]1CC[C@@H](N2CCOCC2)C[C@H]1c1ccc(Br)cc1` the bioavailability (in vivo [1]) was 36% and the half-life (in vivo [2]) was 3.1 h.
With `O=C(NC(c1ccc(Cl)cc1)c1ccnc(F)c1)[C@@H]1CC[C@@H](N2CCOCC2)C[C@H]1c1ccc(Br)cc1` (stereo not given in full) the bioavailability (in vivo [1]) was 90%, the concentration at 20 h (in vivo [3]) was 390 nM and the concentration at 20 h [4] was 163 nM. It also gave a half-life (in vivo [2]) of 2.9 h.
`O=C(NC(c1ccc(F)cc1)c1ccc(F)cc1)[C@@H]1CC[C@@H](N2CCOCC2)C[C@H]1c1ccc(Br)cc1` showed a bioavailability (in vivo [1]) of 77%, a concentration at 20 h (in vivo [3]) of 1020 nM and a half-life (in vivo [2]) of 7.6 h.
With `O=C(NC(c1ccc(Cl)cc1)c1ccncc1Cl)[C@@H]1CC[C@@H](N2CCOCC2)C[C@H]1c1ccc(Br)cc1` (stereo not given in full) the bioavailability (in vivo [1]) was 17% and the half-life (in vivo [2]) was 1.5 h.
In the case of `O=C(NC(c1ccncc1)c1ccc(Cl)cc1)[C@@H]1CC[C@@H](N2CCOCC2)C[C@H]1c1ccc(Br)cc1` (stereo not given in full), the bioavailability (in vivo [1]) is reported as 8.9% and the half-life (in vivo [2]) is reported as 1.4 h.
